Results: US7879881B2, “Piperidinyl compounds that selectively bind integrins” (Janssen Pharmaceutica NV, priority 2002, dated 2011)
Where two headings read alike, the source gives them in different places.

Assays:
Human αvβ3 = target: T1, Human αvβ3 (Homo sapiens, UniProt P05106+P06756); assay: In Vitro Solid Phase Purified αvβ3 Binding Assay (vitronectin/αvβ3); conditions: vitronectin binding to immobilized purified human αvβ3, mean ± spread
T1 construct: purchased Chemicon International Inc., Temecula, Calif
T1 sequence (P06756 31-889 limits assumed): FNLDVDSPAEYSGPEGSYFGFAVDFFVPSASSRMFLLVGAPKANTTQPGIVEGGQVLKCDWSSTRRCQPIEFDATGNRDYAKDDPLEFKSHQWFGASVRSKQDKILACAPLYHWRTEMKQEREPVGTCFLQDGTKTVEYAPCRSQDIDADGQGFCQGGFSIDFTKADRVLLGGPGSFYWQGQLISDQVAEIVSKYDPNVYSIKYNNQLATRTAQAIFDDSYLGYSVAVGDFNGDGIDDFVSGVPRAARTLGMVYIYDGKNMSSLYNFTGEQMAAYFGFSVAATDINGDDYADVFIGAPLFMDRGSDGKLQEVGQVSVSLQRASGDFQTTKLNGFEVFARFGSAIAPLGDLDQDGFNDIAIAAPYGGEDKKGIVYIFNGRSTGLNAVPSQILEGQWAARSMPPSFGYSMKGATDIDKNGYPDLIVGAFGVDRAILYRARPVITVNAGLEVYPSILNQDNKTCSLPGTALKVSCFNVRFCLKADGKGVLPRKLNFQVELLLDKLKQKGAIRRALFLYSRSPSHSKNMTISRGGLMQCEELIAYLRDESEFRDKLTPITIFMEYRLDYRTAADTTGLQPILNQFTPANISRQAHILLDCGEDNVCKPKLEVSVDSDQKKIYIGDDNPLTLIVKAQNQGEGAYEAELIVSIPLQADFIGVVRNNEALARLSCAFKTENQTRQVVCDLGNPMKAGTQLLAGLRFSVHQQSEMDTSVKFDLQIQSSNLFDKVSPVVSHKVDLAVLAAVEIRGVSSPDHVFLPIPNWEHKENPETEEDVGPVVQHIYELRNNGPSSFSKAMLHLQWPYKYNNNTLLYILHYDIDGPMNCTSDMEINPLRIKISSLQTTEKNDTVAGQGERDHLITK
T1 sequence (P06756 891-1048 partner limits assumed): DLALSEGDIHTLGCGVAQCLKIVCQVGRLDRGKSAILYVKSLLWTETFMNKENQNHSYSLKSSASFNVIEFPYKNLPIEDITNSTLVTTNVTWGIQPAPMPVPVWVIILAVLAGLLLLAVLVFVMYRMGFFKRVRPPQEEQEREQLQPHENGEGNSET
T1 sequence (P05106 27-788): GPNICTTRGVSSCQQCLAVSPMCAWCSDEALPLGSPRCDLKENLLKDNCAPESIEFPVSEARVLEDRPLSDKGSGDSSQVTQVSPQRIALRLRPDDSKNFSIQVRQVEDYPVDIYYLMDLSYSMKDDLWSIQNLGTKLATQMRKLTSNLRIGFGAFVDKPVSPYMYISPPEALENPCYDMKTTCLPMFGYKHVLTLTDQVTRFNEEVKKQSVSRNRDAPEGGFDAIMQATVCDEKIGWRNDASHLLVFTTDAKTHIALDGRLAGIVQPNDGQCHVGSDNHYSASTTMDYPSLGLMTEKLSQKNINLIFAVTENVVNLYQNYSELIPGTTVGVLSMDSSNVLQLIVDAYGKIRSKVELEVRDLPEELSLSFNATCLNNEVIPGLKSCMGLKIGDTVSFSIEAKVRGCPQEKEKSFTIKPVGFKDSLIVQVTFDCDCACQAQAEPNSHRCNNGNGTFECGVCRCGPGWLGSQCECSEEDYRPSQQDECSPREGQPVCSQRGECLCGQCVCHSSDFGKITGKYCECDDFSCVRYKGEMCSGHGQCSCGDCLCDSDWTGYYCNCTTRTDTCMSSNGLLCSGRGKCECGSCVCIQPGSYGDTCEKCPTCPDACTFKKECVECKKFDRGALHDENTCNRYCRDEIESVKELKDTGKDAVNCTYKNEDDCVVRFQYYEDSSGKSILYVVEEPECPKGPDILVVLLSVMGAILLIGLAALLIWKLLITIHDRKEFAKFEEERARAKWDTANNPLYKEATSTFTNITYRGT
Protocol: In Vitro Solid Phase Purified αvβ3 Binding Assay
(§1) Human αvβ3 (Chemicon International Inc., Temecula, Calif.), at a concentration of 1 μg/ml dissolved in Tris buffer (20 mM Tris, 1 mM CaCl2, 1 mM MgCl2, 10 μM MnCl2, 150 mM NaCl), was immobilized on Immulon 96 well plates (Dynex Technologies, Chantilly, Va.) overnight at 4° C. Plates were washed and treated with blocking buffer (3% BSA in Tris buffer) for 2 h at 37° C. Plates were then rinsed 2 times with assay buffer comprised of Tris buffer. Synthesized compounds were added to wells in duplicate immediately prior to the addition of 2 nM vitronectin (Sigma, St. Louis, Mo.). Following a 3 hour incubation at 37° C., plates were washed 5 times in assay buffer. An anti-human vitronectin IgG rabbit polyclonal antibody (Calbiochem, San Diego, Calif.) was added (1:2000) and plates were incubated for 1 hour at room temperature. VectaStain ABC peroxidase kit reagents (Vector Laboratories, Burlingame, Calif.) employing a biotin labeled anti-rabbit IgG, were utilized for detection of bound antibody. Plates were read at 490 nm on a Molecular Devices (Sunnyvale, Calif.) microplate reader.

GP IIb/IIIa = GP IIb/IIIa (Homo sapiens, UniProt P05106+P08514); assay: In Vitro Solid Phase Purified GP IIb/IIIa Binding Assay (biotinylated fibrinogen); conditions: biotinylated fibrinogen binding to immobilized purified GP IIb/IIIa, mean ± spread
Chain of GP IIb/IIIa (P08514 32-887 limits assumed): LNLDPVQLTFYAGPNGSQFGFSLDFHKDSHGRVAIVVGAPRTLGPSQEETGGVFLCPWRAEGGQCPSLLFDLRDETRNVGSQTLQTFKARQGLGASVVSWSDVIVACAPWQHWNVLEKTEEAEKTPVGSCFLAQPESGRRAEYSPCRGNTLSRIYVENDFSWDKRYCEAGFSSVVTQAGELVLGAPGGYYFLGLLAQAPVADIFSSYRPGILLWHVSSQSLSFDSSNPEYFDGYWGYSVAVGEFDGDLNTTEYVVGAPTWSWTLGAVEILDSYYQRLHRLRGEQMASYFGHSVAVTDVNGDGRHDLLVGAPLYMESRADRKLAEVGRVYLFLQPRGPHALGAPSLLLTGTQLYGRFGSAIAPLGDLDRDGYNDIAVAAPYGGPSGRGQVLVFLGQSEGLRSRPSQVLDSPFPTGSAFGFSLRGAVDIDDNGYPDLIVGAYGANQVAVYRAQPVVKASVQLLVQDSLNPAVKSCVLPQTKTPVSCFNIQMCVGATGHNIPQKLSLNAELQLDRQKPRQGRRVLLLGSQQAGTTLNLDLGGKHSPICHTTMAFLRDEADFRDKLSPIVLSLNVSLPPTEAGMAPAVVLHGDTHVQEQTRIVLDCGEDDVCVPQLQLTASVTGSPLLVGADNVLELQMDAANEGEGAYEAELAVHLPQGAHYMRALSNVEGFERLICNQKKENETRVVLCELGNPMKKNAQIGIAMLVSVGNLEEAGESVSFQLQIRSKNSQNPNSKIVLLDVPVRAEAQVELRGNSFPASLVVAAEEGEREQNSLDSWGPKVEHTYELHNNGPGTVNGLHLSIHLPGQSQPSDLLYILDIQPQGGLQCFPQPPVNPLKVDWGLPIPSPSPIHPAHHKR
Chain of GP IIb/IIIa (P08514 891-1039 partner limits assumed): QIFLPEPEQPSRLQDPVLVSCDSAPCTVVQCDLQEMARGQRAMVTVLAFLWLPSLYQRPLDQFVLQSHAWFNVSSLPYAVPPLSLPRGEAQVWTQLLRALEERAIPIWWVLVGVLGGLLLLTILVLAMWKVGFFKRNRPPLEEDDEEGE
Chain of GP IIb/IIIa (P05106 27-788): as the sequence (P05106 27-788) above
Protocol: In Vitro Solid Phase Purified GP IIb/IIIa Binding Assay
The plate was covered and incubated overnight at 4° C. The GP IIb/IIIa solution was discarded and 150 μL of 5% BSA was added and incubated at RT for 1-3 h. The plate was washed extensively with modified Tyrodes buffer. Biotinylated fibrinogen (25 μL/well) at 2× final concentration was added to the wells that contain the test compounds (25 μL/well). The plate was covered and incubated at RT for 2-4 h. Twenty minutes prior to incubation completion, one drop of Reagent A (VectaStain ABC Horseradish Peroxidase kit, Vector Laboratories, Inc.) and one drop Reagent B were added with mixing to 5 mL modified Tyrodes buffer mix and let stand. The ligand solution was discarded and the plate washed (5×200 μL/well) with modified Tyrodes buffer. […] The Vecta Stain solution was discarded and the wells washed (5×200 μL/well) with modified Tyrodes buffer. Developing buffer (10 mL of 50 mM citrate/phosphate buffer @ pH 5.3, 6 mg o-phenylenediamine, 6 μL 30% H2O2; 50 μL/well) was added and incubated at RT for 3-5 min and then 2 N H2SO4 (50 μL/well) was added.

human purified αVβ5 = target: T2, human purified αVβ5 (Homo sapiens, UniProt P06756+P18084); assay: In Vitro Solid Phase Purified αcβ5 Binding Assay (vitronectin/αVβ5); conditions: vitronectin binding to immobilized purified human αVβ5, mean ± spread
T2 construct: purchased Chemicon International, Inc
T2 sequence (P06756 31-889 limits assumed): as the sequence (P06756 31-889 limits assumed) above
T2 sequence (P06756 891-1048 partner limits assumed): as the sequence (P06756 891-1048 partner limits assumed) above
T2 sequence (P18084 24-799): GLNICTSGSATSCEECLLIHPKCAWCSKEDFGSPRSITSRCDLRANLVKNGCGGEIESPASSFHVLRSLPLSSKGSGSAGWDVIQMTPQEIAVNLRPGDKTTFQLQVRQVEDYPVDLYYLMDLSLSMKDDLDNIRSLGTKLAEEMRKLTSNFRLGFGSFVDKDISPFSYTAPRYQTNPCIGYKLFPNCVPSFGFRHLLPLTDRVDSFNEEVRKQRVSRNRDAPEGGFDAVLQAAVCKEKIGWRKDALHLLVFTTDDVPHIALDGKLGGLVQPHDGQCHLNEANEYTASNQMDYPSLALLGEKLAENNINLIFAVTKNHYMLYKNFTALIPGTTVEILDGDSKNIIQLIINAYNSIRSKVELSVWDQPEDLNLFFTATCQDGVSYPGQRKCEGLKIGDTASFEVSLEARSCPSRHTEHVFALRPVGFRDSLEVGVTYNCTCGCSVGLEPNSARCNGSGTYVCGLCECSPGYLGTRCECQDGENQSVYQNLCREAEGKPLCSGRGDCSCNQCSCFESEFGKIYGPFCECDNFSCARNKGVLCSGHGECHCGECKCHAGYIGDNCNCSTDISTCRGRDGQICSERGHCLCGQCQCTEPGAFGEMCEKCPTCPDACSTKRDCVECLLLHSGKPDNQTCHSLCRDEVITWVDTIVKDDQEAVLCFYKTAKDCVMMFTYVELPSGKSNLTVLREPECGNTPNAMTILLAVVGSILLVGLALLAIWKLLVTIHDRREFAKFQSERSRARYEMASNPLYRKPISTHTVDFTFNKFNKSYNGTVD
Protocol: as §1
In Vitro Solid Phase Purified αcβ5 Binding Assay
All other aspects of the assay including buffers, reagents and incubation times remain unchanged.

Structure (SMILES) | IC50 (Human αvβ3; read-out: αvβ3IC50) [µM] | IC50 (GP IIb/IIIa; read-out: αIIbβ3 IC50) [µM] | IC50 (human purified αVβ5; read-out: αvβ5 IC50) [µM] | IC50 (GP IIb/IIIa; αIIbβ3 IC50 (uM)) [µM] | IC50 (Human αvβ3; αvβ3IC50 (uM)) [µM] | IC50 (human purified αVβ5; αvβ5 IC50 (uM)) [µM]
O=C(O)CC(c1ccc2c(c1)OCO2)C1CCN(C(=O)CCc2ccc3c(n2)NCCC3)CC1 (stereo not drawn) [Cpd 14, β-(1,3-benzodioxol-5-yl)-1-[1-oxo-3-(5,6,7,8-tetrahydro-1,8-naphthyridin-2-yl)propyl]-4-piperidinepropanoic acid] | 0.0361 ± 0.0001 | 5.04 | 0.108 ± 0.034 | – | – | –
O=C(O)CC(c1ccc2c(c1)OCO2)C1CCN(C(=O)CCCc2ccc3c(n2)NCCC3)CC1 (stereo not drawn) [Cpd 15, β-(1,3-benzodioxol-5-yl)-1-[1-oxo-4-(5,6,7,8-tetrahydro-1,8-naphthyridin-2-yl)butyl]-4-piperidinepropanoic acid] | 0.0019 ± 0.0002 | 4.03 ± 0.43 | 0.0334 ± 0.0063 | – | – | –
O=C(O)CC(c1ccc2c(c1)OCO2)C1CCN(C(=O)Cc2ccc3c(n2)NCCC3)CC1 (stereo not drawn) [Cpd 16, β-(1,3-benzodioxol-5-yl)-1-[(5,6,7,8-tetrahydro-1,8-naphthyridin-2-yl)acetyl]-4-piperidinepropanoic acid] | 0.281 | 25.4 | 0.775 | – | – | –
COc1ccc(C(CC(=O)O)C2CCN(C(=O)CCCc3ccc4c(n3)NCCC4)CC2)cn1 (stereo not drawn) [Cpd 17, 6-methoxy-β-[1-[1-oxo-4-(5,6,7,8-tetrahydro-1,8-naphthyridin-2-yl)butyl]-4-piperidinyl]-3-pyridinepropanoic acid] | 0.0008 ± 0.0001 | 6.6 ± 1.42 | 0.0313 ± 0.006 | – | – | –
CC1=NCC(C(CC(=O)O)CC2CCN(C(=O)CCc3ccc4c(n3)NCCC4)CC2)CN1 (stereo not drawn) [Cpd 18, 1,4,5,6-tetrahydro-2-methyl-β-[[1-[1-oxo-3-(5,6,7,8-tetrahydro-1,8-naphthyridin-2-yl)propyl]-4-piperidinyl]methyl]-5-pyrimidinepropanoic acid] | > 5 | > 50 | > 5 | – | – | –
O=C(O)CC(CC1CCN(C(=O)CCc2ccc3c(n2)NCCC3)CC1)C1CNc2ccccc2C1 (stereo not drawn) [Cpd 19, 1,2,3,4-tetrahydro-β-[[1-[1-oxo-3-(5,6,7,8-tetrahydro-1,8-naphthyridin-2-yl)propyl]-4-piperidinyl]methyl]-3-quinolinepropanoic acid] | 0.0025 ± 0.0004 | – | 0.0171 ± 0.0025 | 13.8 ± 9.69 | – | –
O=C(O)CC(CCC1CCN(C(=O)CCc2ccc3c(n2)NCCC3)CC1)c1ccc2c(c1)OCO2 (stereo not drawn) [Cpd 20, β-(1,3-benzodioxol-5-yl)-1-[1-oxo-3-(5,6,7,8-tetrahydro-1,8-naphthyridin-2-yl)propyl]-4-piperidinepentanoic acid] | 0.142 ± 0.027 | 1.8 | 0.995 | – | – | –
COc1ccc(C(CCC2CCN(C(=O)CCc3ccc4c(n3)NCCC4)CC2)CC(=O)O)cn1 (stereo not drawn) [Cpd 21, 6-methoxy-β-[2-[1-[1-oxo-3-(5,6,7,8-tetrahydro-1,8-naphthyridin-2-yl)propyl]-4-piperidinyl]ethyl]-3-pyridinepropanoic acid] | 0.028 ± 0.0031 | 1.8 ± 0.63 | 0.78 | – | – | –
O=C(O)CC(CCC1CCN(C(=O)CCCNc2ccccn2)CC1)c1cnc2ccccc2c1 (stereo not drawn) [Cpd 22, β-[2-[1-[1-oxo-4-(2-pyridinylamino)butyl]-4-piperidinyl]ethyl]-3-quinolinepropanoic acid] | 0.0046 ± 0.0008 | 0.43 ± 0.07 | 0.195 | – | – | –
O=C(O)CC(CCC1CCN(C(=O)CCCNc2ccccn2)CC1)c1ccc2c(c1)OCO2 (stereo not drawn) [Cpd 23, β-(1,3-benzodioxol-5-yl)-1-[1-oxo-4-(2-pyridinylamino)butyl]-4-piperidinepentanoic acid] | 0.298 ± 0.146 | 4.93 | 2.01 | – | – | –
O=C(O)CC(c1ccc2c(c1)OCO2)C1CCN(C(=O)CCCNc2ccccn2)CC1 (stereo not drawn) [Cpd 24, β-(1,3-benzodioxol-5-yl)-1-[1-oxo-4-(2-pyridinylamino)butyl]-4-piperidinepropanoic acid] | 0.307 | 19.3 | 0.387 | – | – | –
COc1ccc(C(CCC2CCN(C(=O)CCCNc3ccccn3)CC2)CC(=O)O)cn1 (stereo not drawn) [Cpd 25, 6-methoxy-β-[2-[1-[1-oxo-4-(2-pyridinylamino)butyl]-4-piperidinyl]ethyl]-3-pyridinepropanoic acid] | 0.0456 ± 0.0066 | 8.67 ± 1.72 | 0.773 ± 0.118 | – | – | –
O=C(O)CC(CC1CCN(C(=O)CCCc2ccc3c(n2)NCCC3)CC1)c1ccc2c(c1)OCO2 (stereo not drawn) [Cpd 26, β-(1,3-benzodioxol-5-yl)-1-[1-oxo-4-(5,6,7,8-tetrahydro-1,8-naphthyridin-2-yl)butyl]-4-piperidinebutanoic acid] | 0.0277 ± 0.0053 | 5.92 | 0.5 | – | – | –
O=C(O)CC(CC1CCN(C(=O)c2cccc(NC3=NCC(O)CN3)c2)CC1)c1ccc2c(c1)OCO2 (stereo not drawn) [Cpd 27, β-(1,3-benzodioxol-5-yl)-1-[3-[(1,4,5,6-tetrahydro-5-hydroxy-2-pyrimidinyl)amino]benzoyl]-4-piperidinebutanoic acid] | 0.048 | 1.62 ± 0.56 | 0.81 | – | – | –
COc1ccc(C(CC(=O)O)CC2CCN(C(=O)CCc3ccc4c(n3)NCCC4)CC2)cn1 (stereo not drawn) [Cpd 28, 6-methoxy-β-[[1-[1-oxo-3-(5,6,7,8-tetrahydro-1,8-naphthyridin-2-yl)propyl]-4-piperidinyl]methyl]-3-pyridinepropanoic acid] | – | – | – | 6.1 ± 2.44 | 0.0007 ± 0.0002 | 0.0027 ± 0.0008
O=C(O)CC(CC1CCN(C(=O)CCCc2ccc3c(n2)NCCC3)CC1)c1cnc2ccccc2c1 (stereo not drawn) [Cpd 29, β-[[1-[1-oxo-4-(5,6,7,8-tetrahydro-1,8-naphthyridin-2-yl)butyl]-4-piperidinyl]methyl]-3-quinolinepropanoic acid] | 0.0022 ± 0.0008 | 1.74 ± 0.89 | 0.119 ± 0.015 | – | – | –
O=C(O)CC(CC1CCN(C(=O)CCc2ccc3c(n2)NCCC3)CC1)c1cccc(F)c1 (stereo not drawn) [Cpd 30, β-(3-fluorophenyl)-1-[1-oxo-3-(5,6,7,8-tetrahydro-1,8-naphthyridin-2-yl)propyl]-4-piperidinebutanoic acid] | 0.001 ± 0.0002 | 14.4 ± 5.98 | 0.0028 ± 0.0001 | – | – | –
O=C(O)CC(CC1CCN(C(=O)CCCc2ccc3c(n2)NCCC3)CC1)c1cccc(F)c1 (stereo not drawn) [Cpd 31, β-(3-fluorophenyl)-1-[1-oxo-4-(5,6,7,8-tetrahydro-1,8-naphthyridin-2-yl)butyl]-4-piperidinebutanoic acid] | 0.033 | 21.6 ± 4.87 | 0.3 | – | – | –
O=C(O)CC(CC1CCN(C(=O)CCc2ccc3c(n2)NCCC3)CC1)c1cnc2ccccc2c1 (stereo not drawn) [Cpd 32, β-[[1-[1-oxo-3-(5,6,7,8-tetrahydro-1,8-naphthyridin-2-yl)propyl]-4-piperidinyl]methyl]-3-quinolinepropanoic acid] | – | 1.05 ± 0.56 | – | – | 0.0008 ± 0.0002 | 0.0022 ± 0.0007
O=C(O)CC(CC1CCN(C(=O)CCc2ccc3c(n2)NCCC3)CC1)c1ccc(F)cc1 (stereo not drawn) [Cpd 33, β-(4-fluorophenyl)-1-[1-oxo-3-(5,6,7,8-tetrahydro-1,8-naphthyridin-2-yl)propyl]-4-piperidinebutanoic acid] | 0.0013 ± 0.0004 | > 50 | 0.0226 ± 0.0052 | – | – | –
O=C(O)CC(CC1CCN(C(=O)CCCc2ccc3c(n2)NCCC3)CC1)c1ccc(F)cc1 (stereo not drawn) [Cpd 34, β-(4-fluorophenyl)-1-[1-oxo-4-(5,6,7,8-tetrahydro-1,8-naphthyridin-2-yl)butyl]-4-piperidinebutanoic acid] | 0.148 ± 0.1 | > 50 | 1.04 ± 0.109 | – | – | –
Cc1ncc(C(CC(=O)O)CC2CCN(C(=O)CCc3ccc4c(n3)NCCC4)CC2)cn1 (stereo not drawn) [Cpd 35, 2-methyl-β-[[1-[1-oxo-3-(5,6,7,8-tetrahydro-1,8-naphthyridin-2-yl)propyl]-4-piperidinyl]methyl]-5-pyrimidinepropanoic acid] | 0.0007 ± 0.0004 | 0.965 ± 0.07 | 0.0007 ± 0.0002 | – | – | –
O=C(O)CC(CC1CCN(C(=O)CCc2ccc3c(n2)NCCC3)CC1)c1ccc2c(c1)OCC2 (stereo not drawn) [Cpd 36, β-(2,3-dihydro-6-benzofuranyl)-1-[1-oxo-3-(5,6,7,8-tetrahydro-1,8-naphthyridin-2-yl)propyl]-4-piperidinebutanoic acid] | 0.0008 ± 6e-05 | 3.11 ± 0.04 | 0.0007 ± 0.0002 | – | – | –
